Measurements reported in US6204067A, “Methods of identifying modulators of the estrogen receptor” (Board of Trustees Operating Michigan State University, priority 1999, dated 2001).

Legend:
[1] = tested on: microsomes isolated from MCF-7/ADR cells; test: In vitro acidification of MCF-7/ADR microsomes (acridine orange quenching); type: biochemical
Procedure: Cells were grown in Minimal Essential. Medium supplemented with 10% Fetal Bovine Serum to confluence in 10 level Cell Factories (Nunc, Naperville, Ill.), trypsinized, washed 3× with cold PBS and lysed with a Dounce homogenizer (Pestle A) in 0.25 M sucrose, 20 mM HEPES (pH 7.4), 1 mM DTT, 1 mM EDTA, and 1× protease inhibitor mix (1 μg/ml leupeptin, 1 μ/ml pepstatin A, 1 μg/ml aprotinin, and 16 μM PMSF mixed to 100× before use). The homogenate was centrifuged twice for 10 minutes at 3000×g to remove unbroken cells and nuclei. The supernatant was layered over 20 ml of 0.5 M sucrose (20 mM HEPES (pH 7.4), 1 mM DTT, 1 mM EDTA, 1× protease inhibitor mix) and 1 ml of 2 M sucrose and centrifuged for 1 hour at 100,000 g (Beckman Ti60 Rotor). Microsomes are collected at the 0.5M and 2M interface.
To monitor acidification of the total microsomal fraction, the quenching of AO fluorescence was monitored essentially as described previously [Barasch et al., Nature 352:70-73 (1991)]. Acidic vesicles accumulate AO to high concentrations resulting in the self quenching of the dye and a decrease of the overall fluorescence. Fluorescence was measured on an SLM Aminco-Bowman series 2 luminescence spectrometer with λex =488 nm and λem =530 nm Microsomes (80 μg protein) were suspended in 2.5 ml vesicle buffer (125 mM KCl, 5 mM MgCl2, 20 mM HEPES (pH 7.4), 1 mM DTT, 1 mM EDTA, 2 mM NaN3), with 6 μM AO (5 mM stock in H2 O) in a cuvet. […] After equilibration for 30 minutes at 25° C. 1 mM Tris-ATP was added to begin acidification (100 mM stock, titrated to pH 7.4 with 1 M Tris-base before use). Twenty minutes later, 2.5 μM of nigericin (10 mM stock in EtOH) was added to dissipate any ΔpH formation.
Acridine orange (AO) was used as a probe for lumenal acidification. As vesicles acidify, they accumulate AO to self-quenching concentrations, and deplete the extra-vesicular free AO, resulting in a decrease in total fluorescence. Acidification was initiated by the addition of ATP to a purified microsomal fraction in the absence of cytosol (FIG. 1A, at t=300 sec). […] Nigericin, a K^+ /H^+ exchanger that rapidly dissipates pH gradients, was added at the end of each reaction (t=1500 seconds).

[2] = tested on: yeast vacuoles; test: Vm of yeast vacuoles (Oxonol V); type: biochemical, S. cerevisiae; conditions: 10 μM, KCl or K-gluconate buffer, 2.5 mM ATP
Procedure: Oxonol V is a membrane permeable anionic fluorescent probe that accumulates into the inner leaflet of vesicles with positive Vm, resulting in quenching of fluorescence. Vacuoles were suspended in chloride or gluconate vesicle buffer with 1 μM Oxonol V. Fluorescence was measured with a λex =600 nm and λem =630 nm. After fluorescence has equilibrated, vacuoles were added and the fluorescence is allowed to re-equilibrate. Then, 1 mM Tris-ATP was added and the resulting positive Vm was manifested in fluorescence quenching.
The fluorescent dye Oxonal V was used to monitor Vm.
The Vm was monitored in either KCl or K-gluconate buffer (FIG. 3A).

CC/C(=C(\c1ccccc1)c1ccc(OCCN(C)C)cc1)c1ccccc1 [tamoxifen]
time to almost complete dissipation of the pH gradient ([1]; added 10 minutes after ATP, 8 μM tamoxifen (FIG. 1B)): ≤ 5 minutes | rate of dissipation of pre-existing pH gradient ([1]; added 10 minutes after ATP, tamoxifen 8 μM, bafilomycin A1 100 nM): rapidly reversed acidification | concentration at which acidification was totally blocked ([1]; pre-treated 30 minutes): 8 µM | concentration at which inhibition of acidification was evident ([1]; pre-treated 30 minutes): 1 µM | effect on Vm generated by the vATPase [2]: significantly decreased the Vm
